Experimental findings from patent US11091479B2, “Triazolopyridin-3-ones or their salts and pharmaceutical compositions comprising the same” (YUHAN CORPORATION, priority 2018, dated 2021) are described below.

Where a name gives a salt, the structure may show the parent alone.

Format in all cases: biochemical
One test has as its target T1, recombinant human VAP-1 (Homo sapiens, UniProt Q16853).
T1 construct: purchased R&D systems
T1 sequence (Q16853 1-763): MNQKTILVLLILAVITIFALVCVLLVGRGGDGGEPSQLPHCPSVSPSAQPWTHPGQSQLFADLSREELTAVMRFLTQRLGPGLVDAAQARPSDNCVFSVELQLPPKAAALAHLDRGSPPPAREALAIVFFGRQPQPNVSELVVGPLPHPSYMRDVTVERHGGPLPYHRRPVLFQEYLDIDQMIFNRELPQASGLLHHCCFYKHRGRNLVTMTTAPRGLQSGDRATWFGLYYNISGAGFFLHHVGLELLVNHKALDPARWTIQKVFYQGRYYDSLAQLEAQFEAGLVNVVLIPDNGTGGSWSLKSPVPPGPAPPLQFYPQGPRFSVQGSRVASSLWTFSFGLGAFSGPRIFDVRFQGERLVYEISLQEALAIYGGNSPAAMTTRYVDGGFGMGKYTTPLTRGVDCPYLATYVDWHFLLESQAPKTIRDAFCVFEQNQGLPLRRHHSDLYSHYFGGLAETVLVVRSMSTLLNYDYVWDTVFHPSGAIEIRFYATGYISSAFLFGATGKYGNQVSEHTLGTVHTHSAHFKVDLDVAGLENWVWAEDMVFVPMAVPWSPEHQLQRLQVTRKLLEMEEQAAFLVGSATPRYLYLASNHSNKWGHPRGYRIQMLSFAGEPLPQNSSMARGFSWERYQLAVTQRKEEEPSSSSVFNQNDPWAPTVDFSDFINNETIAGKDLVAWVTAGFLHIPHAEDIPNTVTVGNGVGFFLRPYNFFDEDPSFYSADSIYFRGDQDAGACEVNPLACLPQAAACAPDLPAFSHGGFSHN
In words: Activity on recombinant human VAP-1, HRP-coupled Amplex Red hydrogen peroxide assay, benzylamine substrate. The settings on record: 30 min incubation at 37° C., 1 mM benzylamine, read-out: Inhibitory Activity (IC50, nM) human VAP-1. The procedure:
(§1) The compounds according to the present technology were evaluated in terms of activity on recombinant human VAP-1 (R&D systems) by measuring the level of hydrogen peroxide in horseradish peroxidase (HRP)-coupled reaction using Amplex Red Hydrogen Peroxide Assay Kit (Molecular Probes, Invitrogen, USA). The experiment was carried out at room temperature using benzylamine as a substrate. In the HRP-coupled reaction, hydrogen peroxide oxidation of 10-acetyl-3,7-dihydroxyphenoxazine (Amplex Red reagent) produces resorufin, which is a highly fluorescent compound. Briefly, the test compound was dissolved in dimethyl sulfoxide (DMSO) at a concentration of 20 mM. The dose-response assessment was made by 1:3 serial dilution in DMSO, thereby creating a 8 point curve. The concentration of the upper part was controlled according to the efficacy of the compounds, followed by dilution with a reaction buffer solution to obtain a final DMSO concentration of less than 1%. To each well of a 96 black well plate, human VAP-1 purified in 50 mM sodium phosphate buffer solution (pH7.4) was added. The test compounds dissolved in DMSO were incubated with the human VAP-1 enzymes at 37° C. for 30 minutes. After 30-minute incubation, each well was added with a reaction mixture containing 200 uM Amplex Red reagent prepared from 50 mM sodium phosphate buffer solution (pH 7.4), 1 mM benzylamine, and 1 U/mL HRP. Fluorescence intensity was measured at several time points during 1-2 hours using a microplate reader (Flexstation3, Molecular Devices) under the wavelength condition exciting at 544 nm and reading the emission at 590 nm. The inhibitory effect of the compounds was measured as a decrease (%) in the signal rate as compared to the control group without any inhibitor (only diluted DMSO). Data was fixed to a logistic model with four variables and IC50 value was calculated using GraphPad Prism program.

Test [1] concerns the target T2, recombinant human MAO-B (monoamine oxidase-B) (Homo sapiens, UniProt P27338).
T2 construct: purchased Sigma-Aldrich
T2 sequence (P27338 1-520): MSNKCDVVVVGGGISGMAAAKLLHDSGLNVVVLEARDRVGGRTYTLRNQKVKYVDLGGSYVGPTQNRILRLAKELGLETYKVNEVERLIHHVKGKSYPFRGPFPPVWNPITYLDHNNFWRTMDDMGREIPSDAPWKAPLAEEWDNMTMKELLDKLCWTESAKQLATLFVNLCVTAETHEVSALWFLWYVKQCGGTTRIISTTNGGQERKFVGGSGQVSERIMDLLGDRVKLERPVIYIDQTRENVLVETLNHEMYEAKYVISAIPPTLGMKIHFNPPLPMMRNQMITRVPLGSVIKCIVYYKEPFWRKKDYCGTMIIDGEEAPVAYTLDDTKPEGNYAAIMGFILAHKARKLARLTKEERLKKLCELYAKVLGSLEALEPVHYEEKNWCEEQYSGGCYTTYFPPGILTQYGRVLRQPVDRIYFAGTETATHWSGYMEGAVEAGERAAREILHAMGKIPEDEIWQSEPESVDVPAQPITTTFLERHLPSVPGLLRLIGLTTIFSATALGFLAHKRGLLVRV
In words: Activity on recombinant human MAO-B, method similar to VAP-1 assay, 1 mM benzylamine substrate. The settings on record: read-out: Inhibitory Activity (IC50, nM) MAO-B. The procedure:
as §1
(§2) In addition, the compounds according to the present technology were evaluated in terms of activity on a recombinant human MAO-A (monoamine oxidase-A, Sigma-Aldrich) and a recombinant human MAO-B(monoamine oxidase-B, Sigma-Aldrich) by using as substrates, 0.5 mM tyramine and 1 mM benzylamine, respectively, with a method similar to the activity evaluation method for recombinant human VAP-1. The compounds according to the present technology were also evaluated in terms of activity on a recombinant human DAO (diamine oxidase, R&D systems) by using as a substrate 1 mM putrescine with a method similar to the activity evaluation method for recombinant human VAP-1.

Test [2] has as its target T3, recombinant human DAO (diamine oxidase) (Homo sapiens, UniProt P19801).
T3 construct: purchased R&D systems
T3 sequence (P19801 20-751): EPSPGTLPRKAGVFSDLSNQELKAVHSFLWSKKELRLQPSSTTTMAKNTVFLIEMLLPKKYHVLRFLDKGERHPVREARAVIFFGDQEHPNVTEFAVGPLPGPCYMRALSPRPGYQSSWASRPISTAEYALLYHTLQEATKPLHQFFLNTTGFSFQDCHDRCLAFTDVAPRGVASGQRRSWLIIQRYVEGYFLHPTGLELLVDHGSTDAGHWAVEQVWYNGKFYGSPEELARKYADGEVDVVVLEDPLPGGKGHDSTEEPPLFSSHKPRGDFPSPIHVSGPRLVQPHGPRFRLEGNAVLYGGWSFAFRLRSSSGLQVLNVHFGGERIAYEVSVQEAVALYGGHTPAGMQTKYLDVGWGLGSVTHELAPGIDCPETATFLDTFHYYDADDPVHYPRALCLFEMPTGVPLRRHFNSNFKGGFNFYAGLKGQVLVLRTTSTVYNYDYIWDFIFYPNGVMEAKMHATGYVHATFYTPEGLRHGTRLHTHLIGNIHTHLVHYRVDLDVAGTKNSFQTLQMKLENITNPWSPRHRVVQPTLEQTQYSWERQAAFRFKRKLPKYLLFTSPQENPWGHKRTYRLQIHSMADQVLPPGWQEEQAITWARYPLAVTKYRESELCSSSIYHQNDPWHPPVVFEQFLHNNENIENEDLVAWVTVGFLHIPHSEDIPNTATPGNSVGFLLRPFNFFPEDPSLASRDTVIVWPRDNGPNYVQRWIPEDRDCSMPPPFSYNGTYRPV
Briefly: Activity on recombinant human DAO, method similar to VAP-1 assay, 1 mM putrescine substrate. To be noted: read-out: Inhibitory Activity (IC50, nM) DAO. The procedure:
as §1, §2

In test [3] the target is T4, recombinant human MAO-A (monoamine oxidase-A) (Homo sapiens, UniProt P21397).
T4 construct: purchased Sigma-Aldrich
T4 sequence (P21397 1-527): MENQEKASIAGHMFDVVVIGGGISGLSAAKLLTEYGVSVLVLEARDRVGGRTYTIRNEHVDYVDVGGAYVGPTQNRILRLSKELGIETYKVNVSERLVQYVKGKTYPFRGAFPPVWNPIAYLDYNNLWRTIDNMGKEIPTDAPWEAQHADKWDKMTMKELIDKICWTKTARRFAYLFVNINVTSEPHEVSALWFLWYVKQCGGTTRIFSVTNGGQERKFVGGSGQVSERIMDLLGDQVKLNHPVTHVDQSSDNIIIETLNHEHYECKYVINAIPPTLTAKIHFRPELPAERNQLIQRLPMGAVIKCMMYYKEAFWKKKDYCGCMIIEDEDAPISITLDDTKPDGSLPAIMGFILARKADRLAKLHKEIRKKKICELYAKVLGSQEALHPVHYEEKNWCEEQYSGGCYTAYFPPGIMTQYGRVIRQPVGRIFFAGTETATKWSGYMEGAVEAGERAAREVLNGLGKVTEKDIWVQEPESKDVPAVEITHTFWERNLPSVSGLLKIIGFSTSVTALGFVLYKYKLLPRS
In words: Activity on recombinant human MAO-A, method similar to VAP-1 assay, 0.5 mM tyramine substrate. To be noted: read-out: Inhibitory Activity (IC50, nM) MAO-A. The procedure: as §1, §2

Turning to `NC/C(=C\F)Cn1nc2ccc(-c3ccc4c(c3)OCCO4)cn2c1=O` [Example 13, 2-[(2E)-2-(aminomethyl)-3-fluoroprop-2-en-1-yl]-6-(2,3-dihydro-1,4-benzodioxin-6-yl)[1,2,4]triazolo[4,3-a]pyridin-3(2H)-one trifluoroacetate], the IC50 at recombinant human VAP-1 is 4.8 nM; in test [1] it was 15 nM; in test [2], less than 100 nM; in test [3], more than 100000 nM.

Regarding `NC/C(=C\F)Cn1nc2ccc(-c3ccc(S(=O)(=O)N4CCOCC4)cc3)cn2c1=O` [Example 4, 2-[(2E)-2-(aminomethyl)-3-fluoroprop-2-en-1-yl]-6-[4-(morpholin-4-ylsulfonyl)phenyl][1,2,4]triazolo[4,3-a]pyridin-3(2H)-one trifluoroacetate], the IC50 is 6.2 nM at recombinant human VAP-1, more than 10000 nM in test [1], less than 100 nM in test [2] and more than 100000 nM in test [3].

Regarding `NC/C(=C\F)Cn1nc2ccc(-c3ccc(C(F)(F)F)nc3)cn2c1=O` [Example 9, 2-[(2E)-2-(aminomethyl)-3-fluoroprop-2-en-1-yl]-6-[6-(trifluoromethyl)pyridin-3-yl][1,2,4]triazolo[4,3-a]pyridin-3(2H)-one hydrochloride], the IC50 on recombinant human VAP-1 was 12 nM; in test [1], 37 nM; in test [2], 0.2 nM; in test [3], more than 100000 nM.

In the case of `NCC(Cn1nc2cc(Br)ccn2c1=O)=C(F)F` [Example 47, 2-[2-(aminomethyl)-3,3-difluoro-allyl]-7-bromo-[1,2,4]triazolo[4,3-a]pyridin-3-one trifluoroacetate], the IC50 on recombinant human VAP-1 is 7 nM; in test [1] it was more than 100000 nM; in test [2] it was 42000 nM; in test [3], more than 100000 nM.

Take `NC/C(=C\F)Cn1nc2ccc(-c3ccc4c(c3)OCO4)cn2c1=O` [Example 12, 2-[(2E)-2-(aminomethyl)-3-fluoroprop-2-en-1-yl]-6-(1,3-benzodioxol-5-yl)[1,2,4]triazolo[4,3-a]pyridin-3(2H)-one hydrochloride]: the IC50 at recombinant human VAP-1 was 3.4 nM; in test [1], less than 10 nM; in test [2] it was 1.1 nM; in test [3] it was 14000 nM.

With `NC/C(=C\F)Cn1nc2ccc(-c3ccc(-c4nc[nH]n4)cc3)cn2c1=O` [Example 5, 2-[(2E)-2-(aminomethyl)-3-fluoroprop-2-en-1-yl]-6-[4-(1H-1,2,4-triazol-3-yl)phenyl][1,2,4]triazolo[4,3-a]pyridin-3(2H)-one trifluoroacetate], the IC50 on recombinant human VAP-1 was 2 nM; in test [1] it was 1450 nM; in test [2] it was less than 100 nM; in test [3], more than 100000 nM.

`CN(C)c1ccc(-c2ccn3c(=O)n(C/C(=C/F)CN)nc3c2)cn1` [Example 32, 2-[(2E)-2-(aminomethyl)-3-fluoroprop-2-en-1-yl]-7-[6-(dimethylamino)pyridin-3-yl][1,2,4]triazolo[4,3-a]pyridin-3(2H)-one hydrochloride]: the IC50 at recombinant human VAP-1 is 0.4 nM; in test [1] it was 19 nM; in test [2] it was 24 nM; in test [3], more than 100000 nM.

Regarding `NC/C(=C\F)Cn1nc2cc(-c3ccc(C(=O)N4CCOCC4)cc3)ccn2c1=O` [Example 24, 2-[(2E)-2-(aminomethyl)-3-fluoroprop-2-en-1-yl]-7-[4-(morpholin-4-ylcarbonyl)phenyl][1,2,4]triazolo[4,3-a]pyridin-3(2H)-one hydrochloride], the IC50 on recombinant human VAP-1 is 0.6 nM; in test [1] it was more than 10000 nM; in test [2], 14 nM; in test [3], more than 100000 nM.

As for `NCC(Cn1nc2cc(-c3ccc(N4CCNCC4)cc3)ccn2c1=O)=C(F)F` [Example 49, 2-[2-(aminomethyl)-3,3-difluoro-allyl]-7-(4-piperazin-1-ylphenyl)-[1,2,4]triazolo[4,3-a]pyridin-3-one ditrifluoroacetate], the IC50 was 1.6 nM at recombinant human VAP-1, 53000 nM in test [1], 390 nM in test [2] and more than 100000 nM in test [3].

The term IC50 denotes the concentration needed to halve the response being measured.
